Results from patent publication US20160223526A1, “METHOD OF SCREENING FOR COMPOUNDS USEFUL IN THE TREATMENT OF HUNTINGTON DISEASE” (INNOVATIVE CONCEPTS IN DRUG DEVELOPMENT, priority 2013, published 2016).

Test system: Patient-derived fibroblasts, cells from HD patient (ID 090401)
Test: Reversal of the HD-signature (mitochondrial behaviour variables) by dynamic imaging of patient-derived fibroblasts
Format: cell-based, human
Details: for recovery (weighted overall rescue of the diseased phenotype, discriminant equation on 7 HD-signature variables): 30 min incubation, 0% = diseased status, 100% = healthy status
Experimental: Fibroblasts were labelled with MitoTracker green, a cell-permeant mitochondrial dye not sensitive to mitochondrial membrane potential, for 30 minutes. Images were recorded from an epifluorescence microscope continuously for 6 minutes. Cells were kept at 37° C. for the duration of the image capture. For each experimental condition, 3 to 15 cells were recorded per well from three independent plates, i.e. up to 6000 individual mitochondria. The maximum duration for data acquisition was 30 minutes (i.e. five cells observed during 6 min). Images were captured with a Zeiss Axioplan II microscope along three dimensions in space and in time.
Patient-derived fibroblasts were cultured in DMEM containing 15% fetal calf serum. and 0.5% DMSO, a concentration known to be inert on the mitochondrial behaviour.
Cells were incubated with different doses of resveratrol or cyclosporine A (CSA) diluted in DMSO or with the vehicle only (DMSO) for 30 minutes and observed through time-lapse video-microscopy for another 30 minutes during dynamic image capture.
Resveratrol and CSA were tested at 4 doses spanning […] (10, 1, 0.1 and 0.05 μM).
The negative control was cells from HD patient (ID 090401) with the vehicle only and the positive control was cells from healthy patient (ID 071201) with the vehicle only.
The raw data obtained for each mitochondrion were expressed as a ratio (%) according to the following formula: DATA=(NC−Var)*100/(NC−PC) (NC=average value of the negative control; PC=average value of the positive control; Var=value of the variable).
Effects are expressed as a percent of control values as defined above, i.e. % of phenotypic rescue. 0% represents the diseased status while 100% represents the healthy status.
To express the weighted effect of the variables on the overall rescue, a discriminant equation was applied.

## Oc1ccc(C=Cc2cc(O)cc(O)c2)cc1 [Resveratrol]
0.05 μM
  recovery (weighted overall rescue of the diseased phenotype, discriminant equation on 7 HD-signature variables): detrimental effect with a mild worsening of the diseased status
10 μM
  recovery (weighted overall rescue of the diseased phenotype, discriminant equation on 7 HD-signature variables): exceeds the healthy status
Doses 10, 1, 0.1 and 0.05 μM
  overall effect / activity profile over the dose range (weighted dose-response on disease-modification): disease-modifying capabilities and rescue of the disease status except at low dose
